Reference: patent publication US5637586A, “Benzimidazolesulfonamide derivatives and pharmaceutical composition” (Kureha Chemical Industry Co., Ltd., priority 1994, dated 1997)

Columns and labels:
[1] = system: angiotensin II receptor subtype 1 (AT1); test: Binding to receptors: inhibition of radioligand (3H-angiotensin II) binding to AT1; details: rabbit adrenal glands, tracer 3H-angiotensin II, displacer DuP753, room temperature
Procedure: (§1) In this Example, the affinity to the angiotensin II receptor subtype 1 or subtype 2 was evaluated by a binding assay in accordance with the method described in Biochem. Pharmacol., 33, 4057-4062 (1984).
(§2) Specifically, the measurement of the total binding in the presence of each drug was performed as follows:
(§3) A mixture (final volume=0.25 ml) of a drug in a given concentration (the drug was dissolved in dimethylsulfoxide, and diluted to a double volume with a buffer attached to a drug discovery system to prepare a sample for the assay; 0.025 ml), a tracer (0.025 ml), and receptors (0.2 ml) was incubated [in the case of the angiotensin II receptor subtype 1 (AT1), at room temperature for 3 hours, and in the case of the subtype 2 (AT2), at 37° C. for 1 hour]. Then, the reaction mixture was filtered with suction (GF/C filter was used in AT1, and GF/B filter was used in AT2). The filter papers after filtration with suction (the tracer bound to the receptors) were counted by a γ-wellcounter (ARC-500, Aloka). The non-specific bindings were measured by repeating the above method, except that a large excess amount of a displacer was added. The specific binding of the drug in the given concentration was calculated by subtracting the non-specific binding from the total binding, respectively. […]

[2] = system: angiotensin II receptor subtype 2 (AT2); test: Binding to receptors: inhibition of radioligand (125I-Tyr4-angiotensin II) binding to AT2; details: bovine cerebellar cortex, tracer 125I-Tyr4-angiotensin II, displacer angiotensin II (human), 37° C., 1 hour
Procedure: as §1, §2, §3

| SMILES | Binding inhibition % in 1 μM, AT1 [1] | Binding inhibition % in 1 μM, AT2 [2] |
| --- | --- | --- |
| CCCCc1nc2ccc(S(=O)(=O)N3CCOCC3)cc2n1Cc1ccc(-c2ccccc2-c2nn[nH]n2)cc1 [Compound No. 1, 4-[[2-n-butyl-1-[2'-[(1H-tetrazol-5-yl)biphenyl-4-yl]methyl]benzimidazol-6-yl]sulfonyl]morpholin] | 100% | 0% |
| CCCCc1nc(Cl)c(CO)n1Cc1ccc(-c2ccccc2-c2nnn[nH]2)cc1 [DuP753, 2-butyl-4-chloro-5-(hydroxymethyl)-1-[[2'-(1H-tetrazol-5-yl)biphenyl-4-yl]methyl]imidazole] | 95% | 0% |
